From PubChem BioAssay AID248 (DTP/NCI, 2004)
Values joined by “and” are separate entries in the source; they are usually repeats but may differ in a detail not shown here. Identical values can stand only once. Inconclusive results and toxic doses are left out. No stated cut-off is given here; in the data, active means T/C of 150% or more; inactive means T/C below 125%.

Tested on: L1210 leukemia ip in BDF1 mice, survival T/C
Test: NCI In Vivo Anticancer Drug Screen. Data for tumor model L1210 Leukemia (intraperitoneal) in B6D2F1 (BDF1) mice
Details: endpoint: mean survival time, higher = longer survival
Method in brief: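 Tumor cells were implanted, animals were treated, and survival was followed. The result divides the treated measurement by the vehicle-control measurement.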

[1] = dose: 10.0 mg/kg/injection, schedule: Q01DX Z (ip), vehicle: carboxymethylcellulose (CMC)
[2] = dose: 100.0 mg/kg/injection, schedule: Q04DX003 (ip), vehicle: saline with Tween-80
[3] = dose: 200.0 mg/kg/injection, schedule: Q04DX003 (ip), vehicle: saline with Tween-80
[4] = dose: 400.0 mg/kg/injection, schedule: Q04DX003 (ip), vehicle: saline with Tween-80
[5] = dose: 100.0 mg/kg/injection, schedule: Q04DX002 (ip), vehicle: saline with Tween-80
[6] = dose: 200.0 mg/kg/injection, schedule: Q04DX002 (ip), vehicle: saline with Tween-80
[7] = dose: 100.0 mg/kg/injection, schedule: Q04DX003 (ip), vehicle: Klucel (hydroxypropylcellulose) (HPC)
[8] = dose: 200.0 mg/kg/injection, schedule: Q04DX003 (ip), vehicle: Klucel (hydroxypropylcellulose) (HPC)
[9] = dose: 25.0 mg/kg/injection, schedule: Q01DX009 (ip), vehicle: saline with Tween-80
[10] = dose: 50.0 mg/kg/injection, schedule: Q01DX009 (ip), vehicle: saline with Tween-80
[11] = dose: 100.0 mg/kg/injection, schedule: Q01DX009 (ip), vehicle: Klucel (hydroxypropylcellulose) (HPC)
[12] = dose: 200.0 mg/kg/injection, schedule: Q01DX009 (ip), vehicle: Klucel (hydroxypropylcellulose) (HPC)
[13] = dose: 400.0 mg/kg/injection, schedule: Q01DX009 (ip), vehicle: Klucel (hydroxypropylcellulose) (HPC)
[14] = dose: 400.0 mg/kg/injection, schedule: Q04DX003 (ip), vehicle: Klucel (hydroxypropylcellulose) (HPC)

Measured: T/C

C=C(C)C(=O)O[C@H]1CC2=C[C@@H](C[C@@]3(C)O[C@@H]3[C@H]3OC(=O)C(=C)[C@@H]31)OC2=O
inactive: dose: 2.5 mg/kg/injection, schedule: Q01DX009 (ip), vehicle: saline + alcohol 112 % of control | dose: 5.0 mg/kg/injection, schedule: Q01DX009 (ip), vehicle: saline + alcohol 110 % of control | dose: 5.0 mg/kg/injection, schedule: Q01DX Z (ip), vehicle: saline 106 % of control | dose: 10.0 mg/kg/injection, schedule: Q01DX009 (ip), vehicle: carboxymethylcellulose (CMC) 105 % of control | dose: 10.0 mg/kg/injection, schedule: Q01DX009 (ip), vehicle: saline + alcohol 107 % of control | [1] 97 % of control | dose: 10.0 mg/kg/injection, schedule: Q01DX Z (ip), vehicle: saline 101 % of control | dose: 20.0 mg/kg/injection, schedule: Q01DX009 (ip), vehicle: carboxymethylcellulose (CMC) 93 % of control | dose: 20.0 mg/kg/injection, schedule: Q01DX009 (ip), vehicle: saline + alcohol 105 % of control | dose: 20.0 mg/kg/injection, schedule: Q01DX Z (ip), vehicle: carboxymethylcellulose (CMC) 100 % of control | dose: 40.0 mg/kg/injection, schedule: Q01DX009 (ip), vehicle: carboxymethylcellulose (CMC) 100 % of control | dose: 40.0 mg/kg/injection, schedule: Q01DX009 (ip), vehicle: saline + alcohol 90 % of control | dose: 40.0 mg/kg/injection, schedule: Q01DX Z (ip), vehicle: carboxymethylcellulose (CMC) 103 % of control

COc1cc(CC2Cc3cccc(=O)c(O)c3C(=O)O2)cc(OC)c1OC (centres undefined)
inactive: [2] 90 % of control | [3] 95 % of control | [4] 92 % of control

CC(C)CCCC(C)CCCC(C)CCCC(C)CC(=O)O (centres undefined)
inactive: dose: 100.0 mg/kg/injection, schedule: Q01DX001 (ip), vehicle: olive oil, sesame oil, peanut oil 103 % of control | dose: 200.0 mg/kg/injection, schedule: Q01DX001 (ip), vehicle: olive oil, sesame oil, peanut oil 101 % of control | dose: 400.0 mg/kg/injection, schedule: Q01DX001 (ip), vehicle: olive oil, sesame oil, peanut oil 91 % of control

CCOc1nc(N)nc(N)c1-c1ccccc1
inactive: [5] 111 % of control | [6] 96 % of control | dose: 400.0 mg/kg/injection, schedule: Q04DX002 (ip), vehicle: saline with Tween-80 100 % of control

C=CCNC(=S)NNC(=S)NNc1ccccc1
inactive: dose: 100.0 mg/kg/injection, schedule: Q01DX009 (ip), vehicle: acetone 98 % of control | [2] 118 % of control | dose: 200.0 mg/kg/injection, schedule: Q01DX009 (ip), vehicle: acetone 90 % of control | [3] 93 % of control | [4] 96 % of control

CC(=O)Oc1cn(Cc2ccccc2)c2c1C(=O)CC(C)C2 (centres undefined)
inactive: dose: 50.0 mg/kg/injection, schedule: Q04DX002 (ip), vehicle: Klucel (hydroxypropylcellulose) (HPC) 108 % of control | dose: 100.0 mg/kg/injection, schedule: Q04DX002 (ip), vehicle: Klucel (hydroxypropylcellulose) (HPC) 94 % of control | dose: 200.0 mg/kg/injection, schedule: Q04DX002 (ip), vehicle: Klucel (hydroxypropylcellulose) (HPC) 102 % of control

CN=C(c1ccc(NC(=O)c2ccc(C(=O)Nc3ccc(C(=NC)N(C)C(C)=O)cc3)cc2)cc1)N(C)C(C)=O
inactive: dose: 4.0 mg/kg/injection, schedule: Q01DX Z (ip), vehicle: carboxymethylcellulose (CMC) 98 % of control | dose: 6.0 mg/kg/injection, schedule: Q01DX Z (ip), vehicle: carboxymethylcellulose (CMC) 104 % of control | dose: 8.0 mg/kg/injection, schedule: Q01DX Z (ip), vehicle: carboxymethylcellulose (CMC) 90 % of control | [1] 101 % of control | dose: 12.5 mg/kg/injection, schedule: Q01DX Z (ip), vehicle: carboxymethylcellulose (CMC) 110 % of control | dose: 50.0 mg/kg/injection, schedule: Q01DX Z (ip), vehicle: carboxymethylcellulose (CMC) 87 % of control

CCCNC(=O)Nc1cccc(Cl)c1
inactive: dose: 100.0 mg/kg/injection, schedule: Q01DX001 (ip), vehicle: carboxymethylcellulose (CMC) 102 % of control | dose: 200.0 mg/kg/injection, schedule: Q01DX001 (ip), vehicle: carboxymethylcellulose (CMC) 109 % of control | dose: 400.0 mg/kg/injection, schedule: Q01DX001 (ip), vehicle: carboxymethylcellulose (CMC) 105 % of control

O=C(OC(c1ccccc1)c1ccccc1)C(CSC(c1ccccc1)(c1ccccc1)c1ccccc1)NC(c1ccccc1)(c1ccccc1)c1ccccc1 (centres undefined)
inactive: [7] 91 % of control | [8] 92 % of control

CNC(=S)Nc1c(C)cc(C)cc1C
inactive: [9] 98 % of control and 108 % of control | dose: 50.0 mg/kg/injection, schedule: Q01DX001 (ip), vehicle: saline with Tween-80 100 % of control | [10] 98 % of control and 105 % of control | dose: 100.0 mg/kg/injection, schedule: Q01DX001 (ip), vehicle: saline with Tween-80 91 % of control | dose: 100.0 mg/kg/injection, schedule: Q01DX009 (ip), vehicle: saline with Tween-80 97 % of control and 92 % of control | [5] 104 % of control and 106 % of control | [2] 104 % of control | dose: 200.0 mg/kg/injection, schedule: Q01DX001 (ip), vehicle: saline with Tween-80 96 % of control | [6] 96 % of control | [3] 94 % of control | [4] 95 % of control

O=[N+]([O-])C1CC=CCC1C(Cl)(Cl)Cl (centres undefined)
inactive: dose: 5.0 mg/kg/injection, schedule: Q04DX003 (ip), vehicle: saline sonified 95 % of control | dose: 10.0 mg/kg/injection, schedule: Q04DX003 (ip), vehicle: saline sonified 110 % of control | dose: 20.0 mg/kg/injection, schedule: Q04DX003 (ip), vehicle: saline sonified 98 % of control

CCCCNC(=O)Nc1ccc(SC)cc1
inactive: [11] 103 % of control | [7] 94 % of control | [12] 95 % of control | [8] 93 % of control | [13] 88 % of control | [14] 94 % of control

O=C(O)c1cccc2c1C(Br)C(Br)c1ccccc1-2 (centres undefined)
inactive: dose: 100.0 mg/kg/injection, schedule: Q04DX003 (ip), vehicle: saline 94 % of control | dose: 200.0 mg/kg/injection, schedule: Q04DX003 (ip), vehicle: saline 94 % of control | dose: 400.0 mg/kg/injection, schedule: Q04DX003 (ip), vehicle: saline 92 % of control

O=C(CC(Cl)(C(F)(F)F)C(F)(F)F)c1cccc([N+](=O)[O-])c1
inactive: dose: 12.5 mg/kg/injection, schedule: Q01DX009 (ip), vehicle: saline with Tween-80 91 % of control | dose: 12.5 mg/kg/injection, schedule: Q04DX003 (ip), vehicle: saline with Tween-80 96 % of control | [9] 96 % of control | dose: 25.0 mg/kg/injection, schedule: Q04DX003 (ip), vehicle: saline with Tween-80 98 % of control | [10] 96 % of control | dose: 50.0 mg/kg/injection, schedule: Q04DX003 (ip), vehicle: saline with Tween-80 100 % of control

CCOc1ccc(NC(=O)Nc2ccccc2OC)cc1
inactive: [11] 97 % of control | [7] 94 % of control | [12] 95 % of control | [8] 92 % of control | [13] 101 % of control | [14] 97 % of control

COc1cc(N=Nc2ccc3c(c2)Cc2ccccc2-3)c(OC)cc1N
inactive: dose: 100.0 mg/kg/injection, schedule: Q01DX001 (ip), vehicle: other 111 % of control | dose: 200.0 mg/kg/injection, schedule: Q01DX001 (ip), vehicle: other 88 % of control | dose: 400.0 mg/kg/injection, schedule: Q01DX001 (ip), vehicle: other 105 % of control
